Common to all, as to type: biochemical, Aloe barbadensis
For one assay, the target named is AbCGT (Aloe vera, UniProt A0A7G9P699). In words: Glycosyltransferase activity assay, purified AbCGT (wild type) with aglycon acceptors and UDP-Glc. Particulars: for conversion rates, O,N,S-glycosylation / conversion rates, di-C-glycosylation / conversion rates, mono-C-glycosylation: aglycon acceptor with UDP-Glc, pH 7.4, 30 °C, up to 12 h, Reaction-1 to -3. The procedure: Due to the instability of some acceptors in the buffer of pH 11.0, the reactions were performed under the physiological conditions (pH 7.4, 30 °C) to compare the catalytic activities of AbGT27 with different substrates under the same conditions. The reactions were performed at 30 °C for up to 12 h and terminated by the addition of 200 μL of ice-cold methanol. Subsequently, samples were centrifuged at 15,000 × g for 30 min to collect the supernatant, and aliquots were analyzed by HPLC-UV/ESIMS. […] The gradient programs were used for the analysis of the reactions (Supplementary Table 6). The conversion rates of the enzyme reactions were calculated from peak areas of glycosylated products and substrates as analyzed by HPLC. To facilitate inferential statistical analysis, three parallel assays were routinely performed; the means ± SD from triplicate analyses are reported here.

The target of the next assay is T1, AbCGT V183D (Aloe vera, UniProt A0A7G9P699, V183D).
T1 sequence (A0A7G9P699 1-470 V183D): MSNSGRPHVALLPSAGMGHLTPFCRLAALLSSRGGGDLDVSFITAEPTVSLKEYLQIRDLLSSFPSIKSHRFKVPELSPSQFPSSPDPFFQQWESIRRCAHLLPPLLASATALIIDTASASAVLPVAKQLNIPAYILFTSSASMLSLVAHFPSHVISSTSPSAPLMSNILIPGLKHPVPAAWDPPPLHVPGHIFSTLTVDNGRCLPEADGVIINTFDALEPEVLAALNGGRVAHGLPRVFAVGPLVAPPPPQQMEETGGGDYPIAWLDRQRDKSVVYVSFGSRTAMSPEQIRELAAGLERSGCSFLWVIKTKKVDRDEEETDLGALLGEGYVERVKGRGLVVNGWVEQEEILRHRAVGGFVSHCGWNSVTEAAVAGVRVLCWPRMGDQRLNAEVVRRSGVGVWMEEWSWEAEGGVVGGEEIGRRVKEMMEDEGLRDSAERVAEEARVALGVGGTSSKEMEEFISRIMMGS
The assay is described as follows: Glycosyltransferase activity of AbCGT variant V183D. The procedure: (§1) The reaction mixture contained 0.5 mM sugar donors (1.0 mM for di-glycosylation), 0.25 mM aglycons, 50 mM Tris-HCl (pH 7.4), and 50‒100 μg of purified AbCGT in a final volume of 100 μL. Due to the instability of some acceptors in the buffer of pH 11.0, the reactions were performed under the physiological conditions (pH 7.4, 30 °C) to compare the catalytic activities of AbGT27 with different substrates under the same conditions. The reactions were performed at 30 °C for up to 12 h and terminated by the addition of 200 μL of ice-cold methanol. Subsequently, samples were centrifuged at 15,000 × g for 30 min to collect the supernatant, and aliquots were analyzed by HPLC-UV/ESIMS. HPLC analysis was performed on a Shiseido CAPCELL PAK C18 MG III column (250 mm × 4.6 mm I.D., 5 μm, Shiseido Co., Ltd., Japan) at a flow rate of 1 mL min^‒1. The mobile phase was a gradient elution of solvents A (0.1% formic acid aqueous solution) and B (methanol). The gradient programs were used for the analysis of the reactions (Supplementary Table 6). The conversion rates of the enzyme reactions were calculated from peak areas of glycosylated products and substrates as analyzed by HPLC. To facilitate inferential statistical analysis, three parallel assays were routinely performed; the means ± SD from triplicate analyses are reported here.
(§2) Site-saturation mutagenesis of AbCGT at residue 183 was performed by PCR using pET28a-AbCGT as a template and the corresponding degenerate primers, which are listed in Supplementary Table 5. PCR products were purified and transformed into Trans1-T1 (DE3) E. coli. The sequences of pET28a-AbCGT mutants were confirmed by sequencing, and transformed into Transetta (DE3) E. coli for heterologous expression following protein purification.

In a further assay the target is T2, AbCGT V183E (Aloe vera, UniProt A0A7G9P699, V183E).
T2 sequence (A0A7G9P699 1-470 V183E): T1 sequence (A0A7G9P699 1-470 V183D) with D183E
In words: Glycosyltransferase activity of AbCGT variant V183E. The procedure: as §1, §2

The structures appear in SMILES notation. Numbering of substitutions follows the chain as printed. Where “and” joins values, the source holds several entries; their conditions need not be identical. Equal values may be shown once.

AbCGT, sequence (A0A7G9P699 entry or part of it): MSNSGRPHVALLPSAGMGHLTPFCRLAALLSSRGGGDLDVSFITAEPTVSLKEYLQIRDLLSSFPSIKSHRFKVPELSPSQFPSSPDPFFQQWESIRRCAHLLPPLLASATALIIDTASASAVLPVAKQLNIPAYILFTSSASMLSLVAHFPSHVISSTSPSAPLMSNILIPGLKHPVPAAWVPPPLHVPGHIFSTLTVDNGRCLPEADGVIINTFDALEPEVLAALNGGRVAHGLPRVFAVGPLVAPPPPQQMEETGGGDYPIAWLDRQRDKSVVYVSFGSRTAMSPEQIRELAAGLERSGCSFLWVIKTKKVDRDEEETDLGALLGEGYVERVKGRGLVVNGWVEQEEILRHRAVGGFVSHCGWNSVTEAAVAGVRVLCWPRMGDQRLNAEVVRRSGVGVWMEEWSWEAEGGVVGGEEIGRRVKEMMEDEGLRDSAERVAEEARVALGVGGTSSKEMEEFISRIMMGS

Turning to `CC(=O)c1ccccc1O` [Compound 1], the “conversion rates, O,N,S-glycosylation” value at AbCGT was 30.2% and 31% and 32.1%. In addition, the “conversion rates, di-C-glycosylation” value at AbCGT was 0%. Also, the “conversion rates, mono-C-glycosylation” value on AbCGT was 0%. Also, the “WT/yield of C-glycoside(%)” value at AbCGT (reaction-1), at AbCGT (reaction-2) and at AbCGT (reaction-3) was 0% throughout. Also, the “WT/yield of O-glycoside(%)” value at AbCGT (reaction-1) is 32.8%; on AbCGT (reaction-2), 33.5%; at AbCGT (reaction-3), 28.2%. The “V183D/yield of C-glycoside(%)” value on AbCGT V183D (reaction-1), on AbCGT V183D (reaction-2) and at AbCGT V183D (reaction-3) was 0% in each case. The “V183D/yield of O-glycoside(%)” value on AbCGT V183D (reaction-1), at AbCGT V183D (reaction-2) and at AbCGT V183D (reaction-3) was 0% in each case.

Turning to `CC(=O)c1cccc(O)c1` [Compound 2], the “conversion rates, O,N,S-glycosylation” value at AbCGT was 71% and 72.2% and 73.1%. The “conversion rates, di-C-glycosylation” value on AbCGT was 0%. In addition, the “conversion rates, mono-C-glycosylation” value on AbCGT was 0%. The “WT/yield of C-glycoside(%)” value on AbCGT (reaction-1), at AbCGT (reaction-2) and at AbCGT (reaction-3) was 0% throughout. For the same molecule, the “WT/yield of O-glycoside(%)” value at AbCGT (reaction-1) was 70.1%; at AbCGT (reaction-2) it was 73.8%; on AbCGT (reaction-3), 73%. The “V183D/yield of C-glycoside(%)” value on AbCGT V183D (reaction-1), on AbCGT V183D (reaction-2) and at AbCGT V183D (reaction-3) was 0% each time. For the same molecule, the “V183D/yield of O-glycoside(%)” value on AbCGT V183D (reaction-1), at AbCGT V183D (reaction-2) and at AbCGT V183D (reaction-3) was 0% throughout. The “V183E/yield of C-glycoside(%)” value on AbCGT V183E (reaction-1), on AbCGT V183E (reaction-2) and at AbCGT V183E (reaction-3) was 0% each time. In addition, the “V183E/yield of O-glycoside(%)” value at AbCGT V183E (reaction-1), at AbCGT V183E (reaction-2) and on AbCGT V183E (reaction-3) was 0% each time.

In the case of `CC(=O)c1ccc(O)cc1` [Compound 3], the “conversion rates, O,N,S-glycosylation” value on AbCGT was 70.3% and 72% and 73%. Moreover, at AbCGT, the “conversion rates, di-C-glycosylation” value stood at 0%. For the same molecule, the “conversion rates, mono-C-glycosylation” value at AbCGT was found to be 0%. In addition, the “WT/yield of C-glycoside(%)” value at AbCGT (reaction-1), on AbCGT (reaction-2) and on AbCGT (reaction-3) was 0% in each case. Moreover, the “WT/yield of O-glycoside(%)” value is reported as 70.4% at AbCGT (reaction-1), 71.9% at AbCGT (reaction-2) and 71% at AbCGT (reaction-3). Moreover, the “V183D/yield of C-glycoside(%)” value at AbCGT V183D (reaction-1), at AbCGT V183D (reaction-2) and at AbCGT V183D (reaction-3) was 0% throughout. Also, the “V183D/yield of O-glycoside(%)” value at AbCGT V183D (reaction-1), on AbCGT V183D (reaction-2) and on AbCGT V183D (reaction-3) was 0% each time. Moreover, the “V183E/yield of C-glycoside(%)” value at AbCGT V183E (reaction-1), at AbCGT V183E (reaction-2) and on AbCGT V183E (reaction-3) was 0% each time. The “V183E/yield of O-glycoside(%)” value on AbCGT V183E (reaction-1), on AbCGT V183E (reaction-2) and at AbCGT V183E (reaction-3) was 0% each time.

In the case of `CC(=O)c1cc(O)cc(O)c1` [Compound 4, 3,5-dihydroxyacetophenone], the “conversion rates, O,N,S-glycosylation” value at AbCGT is 32.6% and 34.9% and 33.8%. At AbCGT, the “conversion rates, di-C-glycosylation” value is on record as 0%. Besides, the “conversion rates, mono-C-glycosylation” value on AbCGT is listed as 0%. Moreover, the “WT/yield of C-glycoside(%)” value on AbCGT (reaction-1) was 1%; at AbCGT (reaction-2), 0.8%; on AbCGT (reaction-3) it was 1.3%. In addition, the figures for the “WT/yield of O-glycoside(%)” value on AbCGT (reaction-1), at AbCGT (reaction-2) and at AbCGT (reaction-3) were 38.8%, 32.4% and 32.9%, respectively. Also, the “V183D/yield of C-glycoside(%)” value at AbCGT V183D (reaction-1), at AbCGT V183D (reaction-2) and at AbCGT V183D (reaction-3) was 0% in each case. The “V183D/yield of O-glycoside(%)” value at AbCGT V183D (reaction-1), at AbCGT V183D (reaction-2) and at AbCGT V183D (reaction-3) was 0% in each case. For the same molecule, the “V183E/yield of C-glycoside(%)” value on AbCGT V183E (reaction-1), at AbCGT V183E (reaction-2) and at AbCGT V183E (reaction-3) was 0% throughout. The “V183E/yield of O-glycoside(%)” value at AbCGT V183E (reaction-1), at AbCGT V183E (reaction-2) and on AbCGT V183E (reaction-3) was 0% each time.

Consider `CC(=O)c1c(O)cccc1O` [Compound 5], for which, on AbCGT, the “conversion rates, O,N,S-glycosylation” value is 72% and 70.6% and 73%. The “conversion rates, di-C-glycosylation” value on AbCGT is 0%. Further, the “conversion rates, mono-C-glycosylation” value on AbCGT was 16.5% and 14.3% and 13.1%. Also, the results for the “WT/yield of C-glycoside(%)” value at AbCGT (reaction-1), on AbCGT (reaction-2) and at AbCGT (reaction-3) were 15.1%, 14.2% and 14.7%, respectively. The “WT/yield of O-glycoside(%)” value at AbCGT (reaction-1) stood at 73.6%; at AbCGT (reaction-2) it was 71%; on AbCGT (reaction-3) it was 72.9%. The “V183D/yield of C-glycoside(%)” value on AbCGT V183D (reaction-1) is reported as 8.2%; at AbCGT V183D (reaction-2), 7.5%; on AbCGT V183D (reaction-3), 7.9%. In addition, the “V183D/yield of O-glycoside(%)” value at AbCGT V183D (reaction-1), at AbCGT V183D (reaction-2) and at AbCGT V183D (reaction-3) was 0% throughout. The “V183E/yield of C-glycoside(%)” value at AbCGT V183E (reaction-1), at AbCGT V183E (reaction-2) and at AbCGT V183E (reaction-3) was 0% in each case. Besides, the “V183E/yield of O-glycoside(%)” value at AbCGT V183E (reaction-1), at AbCGT V183E (reaction-2) and at AbCGT V183E (reaction-3) was 0% in each case.

For `CC(=O)c1ccc(O)cc1O` [Compound 6, 2,4-dihydroxyacetophenone], the “conversion rates, O,N,S-glycosylation” value on AbCGT is 43.8% and 46.5% and 44.5%. In addition, on AbCGT, the “conversion rates, di-C-glycosylation” value was found to be 0%. For the same molecule, the “conversion rates, mono-C-glycosylation” value at AbCGT is 27.1% and 26.5% and 27.4%. The “WT/yield of C-glycoside(%)” value was 29.2% at AbCGT (reaction-1), 25.9% at AbCGT (reaction-2) and 26% at AbCGT (reaction-3). For the same molecule, the “WT/yield of O-glycoside(%)” value at AbCGT (reaction-1) was determined as 43.5%; on AbCGT (reaction-2) it was 45.7%; on AbCGT (reaction-3), 47%. For the same molecule, the “V183D/yield of C-glycoside(%)” value amounted to 13.9% on AbCGT V183D (reaction-1), 12.3% at AbCGT V183D (reaction-2) and 13.1% on AbCGT V183D (reaction-3). For the same molecule, the “V183D/yield of O-glycoside(%)” value is reported as 1% at AbCGT V183D (reaction-1), 1.5% at AbCGT V183D (reaction-2) and 1.4% on AbCGT V183D (reaction-3). Also, the “V183E/yield of O-glycoside(%)” value on AbCGT V183E (reaction-1), on AbCGT V183E (reaction-2) and on AbCGT V183E (reaction-3) was 0% throughout. In addition, the “V183E/yield of C-glycoside(%)” value on AbCGT V183E (reaction-2) stood at 5.5%; on AbCGT V183E (reaction-3), 6.8%.

Values taken from paper PMC7558026, “Exploring and applying the substrate promiscuity of a C-glycosyltransferase in the chemo-enzymatic synthesis of bioactive C-glycosides” (Nature Communications, 2020).
